Laboratory results taken from PMC10125213 (Journal of Molecular Biology, 2023).

Assays:
Type in all cases: binding, SARS-CoV-2
BA.2 S protein = BA.2 S protein (Severe acute respiratory syndrome coronavirus 2, UniProt P0DTC2, A27S/D405N/D614G/D796Y/DEL24-26/E484A/G142D/G339D/H655Y/K417N/N440K/N501Y/N679K/N764K/N969K/P681H/Q493R/Q498R/Q954H/R408S/S371F/S373P/S375F/S477N/T19I/T376A/T478K/V213G/Y505H)
Omicron (BA.1) S protein = Omicron (BA.1) S protein (Severe acute respiratory syndrome coronavirus 2, UniProt P0DTC2, A67V/D614G/D796Y/DEL143-145/DEL211-211/DEL69-70/E484A/G142D/G339D/G446S/G496S/H655Y/INS214EPE/K417N/L212I/L981F/N440K/N501Y/N679K/N764K/N856K/N969K/P681H/Q493K/Q498R/Q954H/S371L/S373P/S375F/S477N/T478K/T547K/T95I/Y505H)
BA.4/5 S protein = BA.4/5 S protein (Severe acute respiratory syndrome coronavirus 2, UniProt P0DTC2, A27S/D405N/D614G/D796Y/DEL24-26/DEL69-70/E484A/F486V/G142D/G339D/H655Y/K417N/L452R/N440K/N501Y/N679K/N764K/N969K/P681H/Q498R/Q954H/R408S/S371F/S373P/S375F/S477N/T19I/T376A/T478K/V213G/Y505H)
[1] = biological target: RBM mutant RBD protein derived from BA.4/5 (Severe acute respiratory syndrome coronavirus 2, UniProt P0DTC2, E484A/F486V/L452R/N440K/N501Y/Q498R/S477N/T478K/Y505H)
Omicron RBD = Omicron RBD (Severe acute respiratory syndrome coronavirus 2, UniProt P0DTC2, E484A/G339D/G446S/G496S/K417N/N440K/N501Y/Q493K/Q498R/S371L/S373P/S375F/S477N/T478K/Y505H)
[2] = test system: RBM mutant RBD protein derived from BA.2

Structure (SMILES) | IC50 (BA.2 S protein) [mM] | IC50 (Omicron (BA.1) S protein) [mM] | IC50 (BA.4/5 S protein) [mM] | sensitivity to TCEP compared to WT protein [1] | inhibition of activity of Omicron RBD (Omicron RBD) [%] | sensitivity to TCEP compared to WT protein [2]
N[C@@H](CCC(=O)N[C@@H](CS)C(=O)NCC(=O)O)C(=O)O [GSH, reduced glutathione] | < 10 | < 10 | < 10 | – | – | –
O=C(O)CCP(CCC(=O)O)CCC(=O)O [TCEP, tris-(2-carboxyethyl)phosphine] | – | – | – | enhanced sensitivities | > 80 | enhanced sensitivities
